Measurements reported in publication PMC13088180, “Chemical Proteomics Reveal the Inventory of Pyrroloquinoline Quinone Binding Proteins in Bacteria” (Journal of the American Chemical Society, 2026).

How the values were obtained:
RuvB = target: T1, RuvB (Escherichia coli, UniProt P0A812); assay: UV/vis spectral shift; intact protein MS; MS/MS site mapping; format: binding; settings: covalent; lysine K26 (main) and K46; 100 uM protein, 300 uM PQQ, 4 °C overnight
T1 construct: recombinant from E. coli BL21, purified without PQQ
T1 sequence (P0A812 1-336): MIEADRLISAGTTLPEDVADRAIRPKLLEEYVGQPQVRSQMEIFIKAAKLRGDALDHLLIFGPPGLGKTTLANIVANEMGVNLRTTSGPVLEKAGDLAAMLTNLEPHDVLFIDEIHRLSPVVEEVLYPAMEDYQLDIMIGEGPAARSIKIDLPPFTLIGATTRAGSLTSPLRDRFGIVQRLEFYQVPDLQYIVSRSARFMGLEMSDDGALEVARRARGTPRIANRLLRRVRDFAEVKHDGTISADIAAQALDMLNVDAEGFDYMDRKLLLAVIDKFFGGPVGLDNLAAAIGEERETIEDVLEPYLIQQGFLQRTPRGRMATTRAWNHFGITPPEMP

[1] = target: T2, 6PGD / 6GPD (6-phosphogluconate dehydrogenase, decarboxylating) (Escherichia coli, UniProt P00350); assay: MS/MS closed search of +310 Da on lysine; format: biochemical; settings: covalent; E. coli K-12 lysate 3.5 mg/mL, 2000 uM PQQ, 2000 uM CaCl2, 37 °C, 4 h
T2 construct: gene gnd; endogenous protein in E. coli K-12 lysate
T2 sequence (P00350 1-468): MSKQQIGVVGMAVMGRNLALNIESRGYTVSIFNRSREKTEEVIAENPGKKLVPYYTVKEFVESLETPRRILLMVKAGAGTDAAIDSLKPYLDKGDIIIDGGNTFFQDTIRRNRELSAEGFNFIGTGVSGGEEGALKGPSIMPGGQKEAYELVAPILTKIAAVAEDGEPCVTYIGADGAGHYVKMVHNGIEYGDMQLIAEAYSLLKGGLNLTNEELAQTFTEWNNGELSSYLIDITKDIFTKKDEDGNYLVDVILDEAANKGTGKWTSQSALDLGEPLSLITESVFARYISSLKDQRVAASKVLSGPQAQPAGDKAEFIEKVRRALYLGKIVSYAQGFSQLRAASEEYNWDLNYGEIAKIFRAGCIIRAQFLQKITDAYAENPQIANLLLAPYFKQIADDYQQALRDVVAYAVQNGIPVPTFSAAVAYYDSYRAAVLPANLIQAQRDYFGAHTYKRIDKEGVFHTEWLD

PpiD = target: T3, PpiD (Pseudomonas putida, UniProt Q88KI6); assay: UV/vis spectral shift; intact protein LC-MS; format: binding; settings: covalent; 100 uM protein, 300 uM PQQ, 4 °C overnight
T3 construct: gene PP_2304; recombinant from E. coli BL21, purified without PQQ
T3 sequence (Q88KI6 36-623): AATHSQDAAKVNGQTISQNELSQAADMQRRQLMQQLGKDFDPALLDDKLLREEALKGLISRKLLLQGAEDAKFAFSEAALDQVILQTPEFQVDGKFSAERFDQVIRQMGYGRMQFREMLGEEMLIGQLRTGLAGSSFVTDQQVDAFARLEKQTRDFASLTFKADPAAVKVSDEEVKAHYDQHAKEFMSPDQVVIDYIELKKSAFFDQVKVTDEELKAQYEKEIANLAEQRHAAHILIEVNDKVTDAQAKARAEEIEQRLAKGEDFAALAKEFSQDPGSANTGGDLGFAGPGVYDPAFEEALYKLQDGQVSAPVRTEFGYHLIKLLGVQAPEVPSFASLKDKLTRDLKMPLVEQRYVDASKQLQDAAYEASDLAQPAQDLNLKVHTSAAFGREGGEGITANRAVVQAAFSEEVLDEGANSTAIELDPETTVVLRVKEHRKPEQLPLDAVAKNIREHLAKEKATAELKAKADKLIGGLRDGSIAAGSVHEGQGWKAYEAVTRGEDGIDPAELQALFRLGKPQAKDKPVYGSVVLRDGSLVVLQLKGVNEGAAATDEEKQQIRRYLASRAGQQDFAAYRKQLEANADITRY

FklB = target: T4, FklB (Escherichia coli, UniProt P0A9L3); assay: UV/vis spectral shift; competition of PQQ4 labelling; format: binding; settings: no covalent adduct by intact protein MS
T4 construct: recombinant from E. coli BL21, purified without PQQ
T4 sequence (P0A9L3 2-206): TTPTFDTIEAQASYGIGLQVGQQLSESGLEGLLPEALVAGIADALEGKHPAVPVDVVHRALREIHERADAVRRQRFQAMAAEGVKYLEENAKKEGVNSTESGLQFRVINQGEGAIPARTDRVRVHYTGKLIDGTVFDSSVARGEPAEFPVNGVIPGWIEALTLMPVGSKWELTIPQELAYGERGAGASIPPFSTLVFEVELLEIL

SurA = target: T5, SurA (Escherichia coli, UniProt P0ABZ6); assay: UV/vis spectral shift; intact protein LC-MS; format: binding; settings: covalent; 100 uM protein, 300 uM PQQ, 4 °C overnight
T5 construct: recombinant from E. coli BL21, purified without PQQ
T5 sequence (P0ABZ6 21-428): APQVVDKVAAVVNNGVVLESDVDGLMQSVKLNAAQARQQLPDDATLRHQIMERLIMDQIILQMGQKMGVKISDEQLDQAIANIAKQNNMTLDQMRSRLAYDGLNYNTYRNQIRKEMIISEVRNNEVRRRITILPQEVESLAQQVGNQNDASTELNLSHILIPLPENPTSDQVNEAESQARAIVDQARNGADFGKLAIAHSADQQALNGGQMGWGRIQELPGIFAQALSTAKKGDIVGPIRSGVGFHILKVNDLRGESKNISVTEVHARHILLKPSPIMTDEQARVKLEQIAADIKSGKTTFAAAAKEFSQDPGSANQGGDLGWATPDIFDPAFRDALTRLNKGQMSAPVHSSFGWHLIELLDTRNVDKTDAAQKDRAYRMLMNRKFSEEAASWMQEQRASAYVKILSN

HtpG = target: T6, HtpG (Escherichia coli, UniProt P0A6Z3); assay: UV/vis spectral shift; intact protein LC-MS; format: binding; settings: covalent; 100 uM protein, 300 uM PQQ, 4 °C overnight
T6 construct: recombinant from E. coli BL21, purified without PQQ; 73529 Da peak is a +135 Da adduct
T6 sequence (P0A6Z3 whole entry): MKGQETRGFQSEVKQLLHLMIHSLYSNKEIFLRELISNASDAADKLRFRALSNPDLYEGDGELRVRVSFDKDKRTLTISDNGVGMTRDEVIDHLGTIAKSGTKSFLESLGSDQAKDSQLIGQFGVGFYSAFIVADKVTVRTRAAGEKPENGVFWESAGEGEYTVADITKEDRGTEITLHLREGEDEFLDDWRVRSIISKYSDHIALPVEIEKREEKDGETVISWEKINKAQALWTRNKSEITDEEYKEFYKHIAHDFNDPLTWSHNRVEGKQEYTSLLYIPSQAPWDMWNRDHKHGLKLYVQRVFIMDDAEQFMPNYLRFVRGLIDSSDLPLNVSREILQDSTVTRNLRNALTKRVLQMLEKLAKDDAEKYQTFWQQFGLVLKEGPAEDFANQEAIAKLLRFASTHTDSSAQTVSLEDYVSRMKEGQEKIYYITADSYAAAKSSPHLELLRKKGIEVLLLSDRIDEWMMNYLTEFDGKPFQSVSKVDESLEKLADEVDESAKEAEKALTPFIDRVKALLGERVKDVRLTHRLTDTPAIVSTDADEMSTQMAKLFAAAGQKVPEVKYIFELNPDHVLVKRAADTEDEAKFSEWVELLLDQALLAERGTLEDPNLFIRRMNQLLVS

Tig (trigger factor) = target: T7, Tig (trigger factor) (Escherichia coli, UniProt P0A850); assay: UV/vis spectral shift; intact protein LC-MS; format: binding; settings: covalent; 100 uM protein, 300 uM PQQ, 4 °C overnight
T7 construct: recombinant from E. coli BL21, purified without PQQ
T7 sequence (P0A850 1-432): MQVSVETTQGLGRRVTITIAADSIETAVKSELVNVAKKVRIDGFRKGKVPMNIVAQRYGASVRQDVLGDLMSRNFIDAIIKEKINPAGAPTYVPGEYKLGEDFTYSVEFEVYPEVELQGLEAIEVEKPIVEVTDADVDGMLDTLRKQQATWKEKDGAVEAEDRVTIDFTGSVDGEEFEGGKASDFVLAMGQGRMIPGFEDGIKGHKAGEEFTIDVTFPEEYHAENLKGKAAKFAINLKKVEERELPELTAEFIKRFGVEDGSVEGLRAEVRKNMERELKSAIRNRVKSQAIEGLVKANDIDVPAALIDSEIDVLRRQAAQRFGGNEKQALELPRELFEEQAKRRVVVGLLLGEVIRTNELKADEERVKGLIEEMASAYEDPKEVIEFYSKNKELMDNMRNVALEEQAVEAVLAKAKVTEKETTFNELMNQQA

[2] = target: T8, MBP (maltose-binding protein) (Escherichia coli, UniProt P0AEX9); assay: UV/vis spectral shift; intact protein LC-MS; settings: covalent; 100 uM protein, 300 uM PQQ, 4 °C overnight
T8 construct: gene malE; recombinant from E. coli BL21, purified without PQQ

PedH = target: T9, PedH (Pseudomonas putida, UniProt Q88JH0); settings: 100 nM enzyme reconstituted with PQQ, 50 mM ethanol
T9 sequence (Q88JH0 28-595): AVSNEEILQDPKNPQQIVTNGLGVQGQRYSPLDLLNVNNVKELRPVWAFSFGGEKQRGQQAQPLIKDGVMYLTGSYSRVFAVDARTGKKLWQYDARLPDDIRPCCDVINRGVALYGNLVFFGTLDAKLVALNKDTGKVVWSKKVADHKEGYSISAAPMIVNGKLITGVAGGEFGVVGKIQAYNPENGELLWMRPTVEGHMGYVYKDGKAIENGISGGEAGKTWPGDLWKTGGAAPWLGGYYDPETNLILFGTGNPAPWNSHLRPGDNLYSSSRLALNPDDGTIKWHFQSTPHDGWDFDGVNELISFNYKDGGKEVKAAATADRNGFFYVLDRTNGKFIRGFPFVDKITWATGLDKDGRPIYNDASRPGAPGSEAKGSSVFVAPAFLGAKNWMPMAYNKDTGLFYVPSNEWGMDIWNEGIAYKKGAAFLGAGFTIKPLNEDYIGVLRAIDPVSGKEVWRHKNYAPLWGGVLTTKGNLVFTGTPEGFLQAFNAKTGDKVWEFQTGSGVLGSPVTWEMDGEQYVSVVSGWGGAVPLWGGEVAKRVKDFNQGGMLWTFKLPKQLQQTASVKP

YliI = target: T10, YliI (Escherichia coli, UniProt P75804); assay: coupled colorimetric assay; format: biochemical; settings: 100 nM enzyme reconstituted with PQQ, 1.25 M glucose
T10 construct: recombinant, purified cofactor-free; details only in supplement
T10 sequence (P75804 21-371): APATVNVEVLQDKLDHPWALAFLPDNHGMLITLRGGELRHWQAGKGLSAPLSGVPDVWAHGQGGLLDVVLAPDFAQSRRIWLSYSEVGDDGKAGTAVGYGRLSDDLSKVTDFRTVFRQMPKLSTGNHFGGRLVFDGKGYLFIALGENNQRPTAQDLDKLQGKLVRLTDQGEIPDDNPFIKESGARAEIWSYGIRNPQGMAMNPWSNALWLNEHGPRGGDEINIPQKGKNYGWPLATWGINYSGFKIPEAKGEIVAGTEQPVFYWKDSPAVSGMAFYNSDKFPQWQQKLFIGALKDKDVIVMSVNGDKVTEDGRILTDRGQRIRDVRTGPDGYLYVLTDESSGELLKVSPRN

Compound: O=C(O)c1cc(C(=O)O)c2c(n1)C(=O)C(=O)c1cc(C(=O)O)[nH]c1-2 [PQQ, Pyrroloquinoline quinone]
- +310 Da mass shift (RuvB): confirming K26 as the predominant covalent binding site
- mass shift [1]: confirmed Tig and 6GPD as covalent binding protein hits
- +310 Da mass shift (PpiD): covalent PQQ binding in the case of Tig, HtpG, MBP, RuvB, SurA, and PpiD
- UV/vis spectral shift; competition of PQQ4 labelling (FklB): addition of the cofactor revealed characteristic spectroscopic shifts comparable to those of YliI and PedH
- +310 Da mass shift (SurA): covalent PQQ binding in the case of Tig, HtpG, MBP, RuvB, SurA, and PpiD
- +310 Da mass shift (HtpG): covalent PQQ binding in the case of Tig, HtpG, MBP, RuvB, SurA, and PpiD
- +310 Da mass shift (Tig (trigger factor)): covalent PQQ binding in the case of Tig, HtpG, MBP, RuvB, SurA, and PpiD
- +310 Da mass shift [2]: covalent PQQ binding in the case of Tig, HtpG, MBP, RuvB, SurA, and PpiD

Compound: CCO [ethanol]
- coupled colorimetric assay (PedH): Ethanol dehydrogenase activity of PedH reconstituted with PQQ or PQQ probes was measured

Compound: OC[C@H]1OC(O)[C@H](O)[C@@H](O)[C@@H]1O (stereo partly shown) [glucose]
- coupled colorimetric assay (YliI): Glucose dehydrogenase activity of YliI reconstituted with PQQ or PQQ probes was measured
